Where a SMILES comes first, the peptide text is derived from it. Where no end group is shown, it is not given here. [ ]: non-standard residue; d: D form. The star is where a group is joined. Hexanoyl = CCCCCC(=O)*; Aib = CC(C)(N)C(=O)O
T1: human VPAC2 (Homo sapiens, UniProt P41587)
T1 construct: expressed in transfected cells
T1 sequence (P41587 24-438): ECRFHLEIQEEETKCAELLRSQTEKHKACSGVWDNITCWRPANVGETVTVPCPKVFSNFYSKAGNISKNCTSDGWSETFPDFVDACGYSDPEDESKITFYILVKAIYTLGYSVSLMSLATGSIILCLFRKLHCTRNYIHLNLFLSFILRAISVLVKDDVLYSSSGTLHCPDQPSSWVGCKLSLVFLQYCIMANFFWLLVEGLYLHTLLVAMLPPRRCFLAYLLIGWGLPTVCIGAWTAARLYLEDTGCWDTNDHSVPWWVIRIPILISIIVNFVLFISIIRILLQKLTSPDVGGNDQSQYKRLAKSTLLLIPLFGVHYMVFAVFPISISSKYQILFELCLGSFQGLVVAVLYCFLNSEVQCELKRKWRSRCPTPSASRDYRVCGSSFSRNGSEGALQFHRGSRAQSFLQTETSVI

T2: human VPAC1 (Homo sapiens, UniProt P32241)
T2 sequence (P32241 31-457): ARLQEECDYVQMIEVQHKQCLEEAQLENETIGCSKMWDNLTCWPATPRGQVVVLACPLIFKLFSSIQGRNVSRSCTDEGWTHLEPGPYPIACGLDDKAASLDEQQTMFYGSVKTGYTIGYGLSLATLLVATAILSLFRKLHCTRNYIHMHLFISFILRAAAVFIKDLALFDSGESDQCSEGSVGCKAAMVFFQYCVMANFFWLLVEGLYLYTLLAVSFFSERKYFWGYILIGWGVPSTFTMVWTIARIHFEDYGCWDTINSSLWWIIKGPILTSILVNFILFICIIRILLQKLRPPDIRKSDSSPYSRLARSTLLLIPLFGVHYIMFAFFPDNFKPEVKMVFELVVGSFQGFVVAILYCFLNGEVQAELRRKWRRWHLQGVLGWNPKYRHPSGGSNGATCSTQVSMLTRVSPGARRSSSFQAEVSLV

T3: human PAC1 (Homo sapiens, UniProt P41586)
T3 sequence (P41586 21-468): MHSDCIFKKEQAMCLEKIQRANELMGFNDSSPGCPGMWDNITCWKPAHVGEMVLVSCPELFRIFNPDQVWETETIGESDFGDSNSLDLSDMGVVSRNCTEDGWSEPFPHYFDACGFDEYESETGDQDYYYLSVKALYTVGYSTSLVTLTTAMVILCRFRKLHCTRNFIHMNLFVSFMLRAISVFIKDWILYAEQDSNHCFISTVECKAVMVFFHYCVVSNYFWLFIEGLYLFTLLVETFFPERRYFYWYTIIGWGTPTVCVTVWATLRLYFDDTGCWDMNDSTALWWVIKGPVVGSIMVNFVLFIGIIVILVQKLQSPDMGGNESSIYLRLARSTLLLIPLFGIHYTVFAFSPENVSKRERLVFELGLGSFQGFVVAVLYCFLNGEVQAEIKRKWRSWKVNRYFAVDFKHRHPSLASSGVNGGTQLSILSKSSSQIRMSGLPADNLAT

T4: human VPAC1 receptor (human, UniProt P32241 31-457)
T4 sequence (looked up): T2 sequence (P32241 31-457)

T5: human VPAC2 receptor (human, UniProt P41587 24-438)
T5 sequence (looked up): T1 sequence (P41587 24-438)


Assays:
human VPAC2 [1] = biological target: T1, human VPAC2; test: Filter binding assay, membranes of stable VPAC2 cell line, 125I-labeled VIP tracer (Table 2); settings: read-out: Human VPAC2 Receptor Binding
How it was run: (§1)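 Membranes 2.5 μg/well; tracer ~40000 cpm; buffer 25 mM HEPES pH 7.4, 0.5% protease-free BSA; 1 h incubation, shaking. Glass-fibre filtration (0.5% polyethyleneamine presoak, 0.2% BSA block), 3× HEPES wash, dry 1 h at 60° C, scintillation count.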

human VPAC1 = biological target: T2, human VPAC1; test: Filter binding assay, membranes of cells transiently transfected with human VPAC1, 125I-labeled VIP tracer (Table 2); parameters: expressed in transfected cells; settings: read-out: Human VPAC1 Receptor Binding
How it was run: as §1

human PAC1 = biological target: T3, human PAC1; test: Filter binding assay, membranes of cells transiently transfected with human PAC1, 125I-labeled PACAP-27 tracer (Table 2); parameters: expressed in transfected cells; settings: read-out: Human PAC1 Receptor Binding
How it was run: as §1

[2] = Rat serum stability studies (remaining active peptide by DiscoveRx cAMP on CHO-VPAC2 cells); assay type: in vitro ADME
How it was run: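 EC50 from a DiscoveRx cAMP read-out on CHO-VPAC2 cells indexes how much peptide stays active after 18 h in rat serum at 37° C without aprotinin, against an aprotinin-protected 4° C aliquot.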

human VPAC2 [3] = biological target: T1, human VPAC2; test: Alpha screen cAMP in vitro potency, human VPAC2 receptor; assay type: cell-based; settings: cAMP generation; single result from two analyses performed in a single run; read-out: Human VPAC2 Receptor: Alpha Screen EC50
How it was run: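 Cells were detached with enzyme-free dissociation buffer, washed into stimulation buffer and used at 50,000 cells per data point. Stimuli and AlphaScreen acceptor beads were added for 60 minutes, then lysis buffer with donor beads for 60 to 120 minutes; the AlphaScreen signal reports intracellular cAMP.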

human VPAC1 receptor = biological target: T4, human VPAC1 receptor; test: cell-based or functional assay
human VPAC2 receptor = biological target: T5, human VPAC2 receptor; test: cell-based or functional assay

Molecule	IC50 (human VPAC2 [1])	IC50 (human VPAC1)	IC50 (human PAC1)	Rat Serum Stability (Estimated purity in % after 72 hours) [2]	Rat Serum Stability (estimated purity in % after 18 hours) [2]	EC50 (human VPAC2 [3])	EC50 cAMP, DiscoveRx (human VPAC1 receptor)	EC50 cAMP, DiscoveRx (human VPAC2 receptor)
Hexanoyl-HSDAVFTDNYTRLL[Aib]QVAA[Aib]KYLQSIKNKRYGGPSSGAPPPS [Agonist P317]	1.23 nM	> 3000 nM	> 25000 nM	21.5%	33.34%	0.36 nM	–	–
Hexanoyl-HSDAVFTDNYTRLR[Aib]QVAALKYLQSIKNKRYGGPSSGAPPPS [Agonist P265]	0.68 nM	> 3000 nM	> 25000 nM	–	8.70%	0.21 nM	–	–
Hexanoyl-HSDAVFTDNYTRLFKQVAAKKYLQSIKNKRYGGPSSGAPPPS [Agonist P175]	13.3 nM	> 3000 nM	> 25000 nM	–	<0.11%	0.68 nM	–	–
CCCCCC(=O)N[C@@H](Cc1c[nH]cn1)C(=O)N[C@@H](CO)C(=O)N[C@@H](CC(=O)O)C(=O)N[C@@H](C)C(=O)N[C@H](C(=O)N[C@@H](Cc1ccccc1)C(=O)N[C@H](C(=O)N[C@@H](CC(=O)O)C(=O)N[C@@H](CC(N)=O)C(=O)N[C@@H](Cc1ccc(O)cc1)C(=O)N[C@H](C(=O)N[C@@H](CCCNC(=N)N)C(=O)N[C@@H](CC(C)C)C(=O)N[C@@H](CCCNC(=N)N)C(=O)NC(C)(C)C(=O)N[C@@H](CCC(N)=O)C(=O)N[C@H](C(=O)N[C@@H](C)C(=O)N[C@@H](C)C(=O)NC(C)(C)C(=O)N[C@@H](CCCCN)C(=O)N[C@@H](Cc1ccc(O)cc1)C(=O)N[C@@H](CC(C)C)C(=O)N[C@@H](CCC(N)=O)C(=O)N[C@@H](CO)C(=O)N[C@H](C(=O)N[C@@H](CCCCN)C(=O)N[C@@H](CCC(N)=O)C(=O)N[C@@H](CCCCN)C(=O)NCC(=O)NCC(=O)N1CCC[C@H]1C(=O)N[C@@H](CO)C(=O)N[C@@H](CO)C(=O)NCC(=O)N[C@@H](C)C(=O)N1CCC[C@H]1C(=O)N1CCC[C@H]1C(=O)N1CCC[C@H]1C(=O)N[C@@H](CO)C(=O)O)[C@@H](C)CC)C(C)C)[C@@H](C)O)[C@@H](C)O)C(C)C [Agonist P294] (Hexanoyl-HSDAVFTDNYTRLR[Aib]QVAA[Aib]KYLQSIKQKGGPSSGAPPPS-OH; C-terminus assumed)	0.45 nM	> 3000 nM	> 25000 nM	–	24.25%	0.24 nM	–	–
CCCCCC(=O)N[C@@H](Cc1c[nH]cn1)C(=O)N[C@@H](CO)C(=O)N[C@@H](CC(=O)O)C(=O)N[C@@H](C)C(=O)N[C@H](C(=O)N[C@@H](Cc1ccccc1)C(=O)N[C@H](C(=O)N[C@@H](CC(=O)O)C(=O)N[C@@H](CCC(N)=O)C(=O)N[C@@H](Cc1ccc(O)cc1)C(=O)N[C@H](C(=O)N[C@@H](CCCNC(=N)N)C(=O)N[C@@H](CC(C)C)C(=O)N[C@@H](CCCNC(=N)N)C(=O)N[C@@H](CCCNC(=N)N)C(=O)N[C@@H](CCC(N)=O)C(=O)N[C@H](C(=O)N[C@@H](C)C(=O)N[C@@H](C)C(=O)N[C@@H](CCCNC(=N)N)C(=O)N[C@@H](CCCCN)C(=O)N[C@@H](Cc1ccc(O)cc1)C(=O)N[C@@H](CC(C)C)C(=O)N[C@@H](CCC(N)=O)C(=O)N[C@@H](CO)C(=O)N[C@H](C(=O)N[C@@H](CCCNC(=N)N)C(=O)N[C@@H](CCC(N)=O)C(=O)NCC(=O)NCC(=O)N1CCC[C@H]1C(=O)N[C@@H](CO)C(=O)N[C@@H](CO)C(=O)NCC(=O)N[C@@H](C)C(=O)N1CCC[C@H]1C(=O)N1CCC[C@H]1C(=O)N1CCC[C@H]1C(=O)N[C@@H](CO)C(=O)O)[C@@H](C)CC)C(C)C)[C@@H](C)O)[C@@H](C)O)C(C)C [Agonist P220] (Hexanoyl-HSDAVFTDQYTRLRRQVAARKYLQSIRQGGPSSGAPPPS-OH; C-terminus assumed)	0.25 nM	5.86 nM	849 nM	–	0.08%	0.12 nM	–	–
Hexanoyl-HSDAVFTDNYTRLRKQLAAKKYLQSIKNKRYGGPSSGAPPPS [Agonist P290]	0.27 nM	221 nM	209 nM	–	0.11%	0.22 nM	–	–
Hexanoyl-HSDAVFTDNYTRLRAQLAAQKYLQSIKNKRYGGPSSGAPPPS [Agonist P142]	0.58 nM	364 nM	1190 nM	–	0.51%	0.15 nM	–	–
Hexanoyl-HSDALFTDNYTRLRKQVAAKKYLQSIKNKRYGGPSSGAPPPS [Agonist P289]	0.38 nM	260 nM	324 nM	–	0.04%	0.16 nM	–	–
Hexanoyl-HSDAVFTDNYTRLRAQVAAQKYLQSIKNKRYGGPSSGAPPPS [Agonist P138]	1.01 nM	5.28 nM	1110 nM	–	0.48%	0.45 nM	–	–
Hexanoyl-HSDAVFTDNYTRLKKQVAAKKYLQSIKNKRYGGPSSGAPPPS [Agonist P171]	5.81 nM	174 nM	335 nM	–	1.78%	0.82 nM	–	–
Hexanoyl-HSDAVFTDNYTRLRRQVAAKKYLQSIKNKRYGGPSSGAPPPS [Agonist P176]	6.88 nM	93 nM	227 nM	–	<0.14%	0.28 nM	–	–
Hexanoyl-HSDAVFTDNYTRLRKQVAAKQYLQSIKNKRYGGPSSGAPPPS [Agonist P183]	0.26 nM	424 nM	506 nM	–	0.18%	0.14 nM	–	–
Hexanoyl-HSDAVFTDNYTRLRKQVAAKKYAQSIKNKRYGGPSSGAPPPS [Agonist P235]	1.47 nM	1340 nM	1110 nM	–	2.62%	0.82 nM	–	–
Hexanoyl-HSDAVFTDNYTRLRKQVAAKKYLQSFKNKRYGGPSSGAPPPS [Agonist P106]	0.22 nM	118 nM	1820 nM	–	0.11%	0.16 nM	–	–
Hexanoyl-HGEGTFTDNYTRLRKQVAAKKYLQSIKNKRYGGPSSGAPPPS [Agonist P222]	1.05 nM	177 nM	466 nM	–	0.23%	0.51 nM	–	–
Hexanoyl-HSDAVFTDNYTRLRKQVAAKFYLQSIKNKRYGGPSSGAPPPS [Agonist P186]	0.87 nM	835 nM	318 nM	–	0.25%	0.15 nM	–	–
Hexanoyl-HSDAVFTDNYTRLRKQVAAYKYLQSIKNKRYGGPSSGAPPPS [Agonist P147]	0.24 nM	107 nM	464 nM	–	0.07%	0.13 nM	–	–
Hexanoyl-HSDAVFTDNYTRLRKQVAAFKYLQSIKNKRYGGPSSGAPPPS [Agonist P148]	0.77 nM	247 nM	1000 nM	–	<0.10%	0.1 nM	–	–
HSDAVFTDNYTRLRKQVAAIKYLQSIKNKRYGGPSSGAPPPS (not fully specified) [P19]	–	–	–	–	–	–	2.9 nM	9.03 nM
